Measured values taken from US7868204B2, “Inhibitors of histone deacetylase” (MethylGene Inc., priority 2001, dated 2011).
Read-outs that look alike come from different tables or passages of the source.

Columns and labels:
[1] = molecular target: T1, cloned recombinant human HDAC-1 (Homo sapiens, UniProt Q13547); assay: Human HDAC-1 enzyme inhibition, Assay 1 ([3H]-acetylated histone substrate, scintillation counting); type: biochemical; details: read-out: Human HDAC-1 IC50
T1 construct: made in house; host or cells: Baculovirus insect cell expression system
Outline: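 Activity read as [3H]-acetic acid liberated from labeled substrate, ethyl acetate-extracted and scintillation-counted. Compounds preincubated 30 min at 4° C. with baculovirus-expressed, purified human HDAC-1. Dose-response curves give IC50 as concentration producing fifty percent of maximal inhibition.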

[2] = test system: HCT116 cells; assay: MTT assay; type: cell-based; details: Homo sapiens, HCT-116, 72 h, HCT116 cells, 72 hours
Outline: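 Read-out: MTT (0.5 mg/ml final, 4 h) after solubilization in 50% DMF/20% SDS, pH 4.7, with OD translated into cell number via the line's growth curve. Compound treatment lasted 72 h at 37 °C in 5% CO2, starting a day after plating.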

[3] = test system: acetylated histone H-4 in T24 human bladder cancer cells; assay: Histone H4 acetylation in whole cells by immunoblots; type: cell-based; details: 16 h
Outline: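 Acetylated histone H4 was quantified by densitometry of ECL-developed immunoblots, probed with a polyclonal antibody, of […] total histone from T24 cultures exposed 16 h to HDAC inhibitors.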

[4] = T-24, Table 5F, read-out: H4 Ac (T24) EC50
[5] = T-24, Table 5c, read-out: H4Ac (T24) EC50
[6] = T-24, Table 5a, read-out: H4Ac (T24) EC50

T1 sequence (Q13547 whole entry): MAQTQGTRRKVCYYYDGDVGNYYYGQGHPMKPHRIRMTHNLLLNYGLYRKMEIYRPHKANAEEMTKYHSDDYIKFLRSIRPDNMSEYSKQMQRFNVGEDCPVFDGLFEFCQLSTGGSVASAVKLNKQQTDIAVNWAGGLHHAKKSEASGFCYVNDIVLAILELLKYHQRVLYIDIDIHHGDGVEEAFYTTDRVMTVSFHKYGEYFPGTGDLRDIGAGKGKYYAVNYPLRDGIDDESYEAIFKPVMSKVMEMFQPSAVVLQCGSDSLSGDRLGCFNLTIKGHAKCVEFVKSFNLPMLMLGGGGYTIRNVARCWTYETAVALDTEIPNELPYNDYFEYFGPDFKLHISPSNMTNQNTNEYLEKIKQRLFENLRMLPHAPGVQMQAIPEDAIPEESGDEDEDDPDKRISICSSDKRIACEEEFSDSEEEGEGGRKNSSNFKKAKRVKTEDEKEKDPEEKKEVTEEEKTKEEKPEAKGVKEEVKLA

Row | IC50 ([1]; Table 5F) | IC50 ([2]; Table 5F) | EC50 [3, 4] | Compound | other results
1 | 4 µM | 0.3 µM | 1 µM | Cc1nn(-c2ccccc2)c(C)c1Cc1ccc(C(=O)Nc2ccccc2N)cc1 [compound 277, N-(2-Amino-phenyl)-4-(3,5-dimethyl-1-phenyl-1H-pyrazol-4-ylmethyl)-benzamide] | 
2 | 3 µM | 0.4 µM | 5 µM | COc1ccc(NCc2ccc(C(=O)Nc3ccccc3N)cc2)c(OC)n1 [Cpd 388, N-(2-Amino-phenyl)-4-[(2,6-dimethoxy-pyridin-3-ylamino)-methyl]-benzamide] | 
3 | 3 µM | 0.3 µM | 1 µM | Nc1ccccc1NC(=O)c1ccc(CNc2nc3ccc(OCCN4CCOCC4)cc3s2)cc1 [Cpd 228] | 
4 | 14 µM | 0.4 µM | 1 µM | Nc1ccccc1NC(=O)c1ccc(CNc2ccc(N3CCOCC3)cc2)cc1 [Cpd 402, N-(2-Amino-phenyl)-4-[(4-morpholin-4-yl-phenylamino)-methyl]-benzamide] | 
5 | 4 µM | 1 µM | 1 µM | COc1cc(NCc2ccc(C(=O)Nc3ccccc3N)cc2)nc(OC)n1 [Cpd 392, N-(2-Amino-phenyl)-4-[(2,6-dimethoxy-pyrimidin-4-ylamino)-methyl]-benzamide] | 

More lines, now with the values behind:

Row | Compound | IC50 ([1]; Table 5F) | IC50 ([2]; Table 5F) | EC50 [3, 4] | other results
6 | CC(=O)Nc1sc(Cc2ccc(C(=O)Nc3ccccc3N)cc2)cc1C#N [Cpd 359, 4-(5-Acetylamino-4-cyano-thiophen-2-ylmethyl)-N-(2-amino-phenyl)-benzamide] | 2 µM | 0.3 µM | 1 µM | 
7 | Nc1ccccc1NC(=O)c1ccc(Cc2nc(CN3CCOCC3)cs2)cc1 [Cpd 252] | 8 µM | 1 µM | 2 µM | 
8 | Nc1ccccc1NC(=O)/C=C/c1ccc(NC/C=C/c2ccccc2)nc1 [Cpd 112] |  |  |  | IC50 ([1]; Table 5c): 2 µM; IC50 ([2]; Table 5c): 5 µM; EC50 [3, 5]: 5 µM
9 | Nc1nc(NCc2ccc(C(=O)Nc3ccccc3N)cc2)nc(NCc2ccccn2)n1 [Cpd 12] |  |  |  | IC50 ([1]; Table 5a): 2 µM; IC50 ([2]; Table 5a): 2 µM; EC50 [3, 6]: 5 µM
10 | Nc1nc(NCc2ccc(C(=O)Nc3ccccc3N)cc2)nc(N2CCN(c3ccccc3)CC2)n1 [Cpd 11] |  |  |  | IC50 ([1]; Table 5a): 2 µM; IC50 ([2]; Table 5a): 0.6 µM; EC50 [3, 6]: 2 µM
11 | Nc1ccccc1NC(=O)c1ccc(NCc2cccc(OC(F)(F)F)c2)cc1 [Cpd 425, N-(2-Amino-phenyl)-4-(3-trifluoromethoxy-benzylamino)-benzamide] | 2 µM | 0.6 µM | 5 µM | 
12 | COc1ccc(N(Cc2ccc(C(=O)Nc3ccccc3N)cc2)C(=O)Nc2ccc(SC)cc2)cc1OC [compound 317, N-(2-Aminophenyl)-4-[1-(3,4-dimethoxyphenyl)-3-(4-methylsulfanylphenyl)-ureidomethyl]-benzamide] | 2 µM | 0.3 µM | 1 µM | 
13 | COc1ccc(NC(=O)N(Cc2ccc(C(=O)Nc3ccccc3N)cc2)c2ccc(OC)c(OC)c2)cc1OC [Cpd 371, N-(2-Amino-phenyl)-4-[1,3-bis-(3,4-dimethoxy-phenyl)-ureidomethyl]-benzamide] | 4 µM | 0.5 µM | 2 µM | 
14 | Nc1ccccc1NC(=O)c1ccc(-c2cccc(CNC3Cc4ccccc4C3)c2)cc1 [Cpd 186] | 2 µM | 2 µM | 2 µM | 
15 | Nc1nc(NCCCc2ccccc2)nc(NCc2ccc(C(=O)Nc3ccccc3N)cc2)n1 [Cpd 470] |  |  |  | IC50 ([1]; Table 5b): 2 µM; IC50 ([2]; Table 5b): 0.7 µM; EC50 ([3]; T-24, Table 5b, read-out: H4Ac (T24) EC50): 3 µM
16 | COc1ccc(CCNc2ccc(/C=C/C(=O)Nc3ccccc3N)cn2)cc1 [Cpd 95, N-(2-aminophenyl)-3-{6-[2-(4-methoxy-phenyl)-ethylamino]-pyridin-3-yl}-acrylamide] |  |  |  | IC50 ([1]; Table 5c): 3 µM; IC50 ([2]; Table 5c): 2 µM; EC50 [3, 5]: 10 µM
17 | Nc1ccccc1NC(=O)c1ccc(CC2C(=O)c3ccccc3C2O)cc1 (stereo not drawn) [Cpd 365, N-(2-Amino-phenyl)-4-(1-hydroxy-3-oxo-indan-2-ylmethyl)-benzamide] | 3 µM | 0.6 µM | 3 µM | 
